System: rabbit aorta rings
Assay: Vasorelaxant effect in vitro (phenylephrine-contracted rabbit aortic rings)
Details: Oryctolagus cuniculus; concentration reducing height of phenylephrine-induced contraction of rabbit aorta rings by 50%; 0.1% DMSO, 37° C.
Method: Rabbits are stunned by a blow to the back of the neck and are exsanguinated. The aorta is removed, freed of adherent tissue, divided into rings 1.5 mm wide and put singly under tension in 5 ml organ baths containing carbogen-gassed Krebs-Henseleit solution at 37° C. with the following composition (mM): NaCl: 119; KCl: 4.8; CaCl2×2H2O: 1; MgSO4×7H2O: 1.4; KH2PO4: 1.2; NaHCO3: 25; glucose: 10. The force of contraction is detected with Statham UC2 cells, amplified and digitized via A/D converters (DAS-1802 HC, Keithley Instruments Munich) and recorded in parallel on chart recorders. A contraction is generated by adding phenylephrine to the bath cumulatively in increasing concentration. After several control cycles, the substance to be investigated is investigated in each further run in increasing dosage in each case, and the height of the contraction is compared with the height of the contraction reached in the last preceding run. The concentration necessary to reduce the height of the control value by 50% (IC50) is calculated from this. The standard application volume is 5 μl, and the DMSO content in the bath solution corresponds to 0.1%.

Compound	IC50 [nM]
Nc1nc(-c2nn(Cc3ccccc3F)c3ncccc23)nc(N)c1N1CCCS1(=O)=O [Example 3, 5-(1,1-Dioxido-2-isothiazolidinyl)-2-[1-(2-fluorobenzyl)-1H-pyrazolo[3,4-b]pyridin-3-yl]-4,6-pyrimidineamine]	350
Nc1nc(-c2nn(Cc3ccccc3F)c3ncccc23)nc(Cl)c1N1CCCS1(=O)=O [Example 1, 6-Chloro-5-(1,1-dioxido-2-isothiazolidinyl)-2-[1-(2-fluorobenzyl)-1H-pyrazolo[3,4-b]pyridin-3-yl]-4-pyrimidinediamine]	290
